Experimental data: patent US9096624B2 (OSI Pharmaceuticals, LLC, priority 2009, dated 2015)

How the values were obtained:
FAK [1] = target: T1, FAK (Homo sapiens, UniProt Q05397); test: Cell-based capture ELISA for inhibition of FAK autophosphorylation [pY397] in MiaPaCa2 cells
Protocol: Cell-Based Assays for Inhibition of FAK Autophosphorylation: MiaPaCa2 and U87MG
ELISA kit from Invitrogen (KHO0441).
Reagents Provided in Biosource FAK [pY397]
The cells were then suspended in cell assay medium.

FAK [2] = target: T1, FAK; test: biochemical
[3] = MIA-PaCa2 cells, + 50% mouse plasma (Table 3), read-out: Mean FAK Cell Mechanistic IC50 + 50% mP MIA-PaCa2
[4] = MIA-PaCa2 cells, + 50% mouse plasma (Table 2), read-out: Mean FAK Cell Mechanistic IC50 + 50% mP MIA-PaCa2
[5] = MIA-PaCa2 cells on fibronectin, 2 h, no plasma, read-out: Mean FAK Cell Mechanistic IC50 MIA-PaCa2
[6] = MIA-PaCa2 cells, + 50% human plasma, read-out: Mean FAK Cell Mechanistic IC50 + 50% hP MIA-PaCa2

T1 sequence (Q05397 whole entry): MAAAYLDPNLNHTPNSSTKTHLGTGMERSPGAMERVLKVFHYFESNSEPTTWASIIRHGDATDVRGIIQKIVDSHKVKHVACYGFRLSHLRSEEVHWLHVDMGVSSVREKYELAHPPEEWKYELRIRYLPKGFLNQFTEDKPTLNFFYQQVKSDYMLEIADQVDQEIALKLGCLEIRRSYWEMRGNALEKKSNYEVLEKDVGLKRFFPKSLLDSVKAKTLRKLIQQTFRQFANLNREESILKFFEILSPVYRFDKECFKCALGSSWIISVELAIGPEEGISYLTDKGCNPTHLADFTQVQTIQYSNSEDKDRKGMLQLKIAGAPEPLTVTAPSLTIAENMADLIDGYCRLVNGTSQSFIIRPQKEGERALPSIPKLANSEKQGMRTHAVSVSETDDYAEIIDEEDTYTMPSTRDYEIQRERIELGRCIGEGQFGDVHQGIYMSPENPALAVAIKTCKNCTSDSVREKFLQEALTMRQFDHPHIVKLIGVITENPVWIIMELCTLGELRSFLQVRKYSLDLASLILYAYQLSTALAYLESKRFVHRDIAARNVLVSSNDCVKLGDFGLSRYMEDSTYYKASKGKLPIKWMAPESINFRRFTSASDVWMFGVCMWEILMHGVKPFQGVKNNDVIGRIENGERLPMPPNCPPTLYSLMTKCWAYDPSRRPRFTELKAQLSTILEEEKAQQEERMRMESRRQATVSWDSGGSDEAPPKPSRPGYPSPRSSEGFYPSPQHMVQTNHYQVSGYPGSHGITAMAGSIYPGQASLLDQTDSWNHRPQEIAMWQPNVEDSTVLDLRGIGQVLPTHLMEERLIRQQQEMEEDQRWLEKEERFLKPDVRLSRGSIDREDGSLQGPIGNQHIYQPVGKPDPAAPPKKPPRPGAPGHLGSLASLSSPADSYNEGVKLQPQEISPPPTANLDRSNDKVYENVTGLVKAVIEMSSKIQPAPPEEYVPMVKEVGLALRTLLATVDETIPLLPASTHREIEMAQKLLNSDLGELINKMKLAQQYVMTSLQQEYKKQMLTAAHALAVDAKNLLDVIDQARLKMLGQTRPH

IC50 (FAK [1]; [4]) | Structure (SMILES) | IC50 (FAK [1]; [3]) | IC50 (FAK [2]) | IC50 (FAK [1]; [5]) | IC50 (FAK [1]; [6])
– | CCOP(=O)(Cc1ccc(Nc2ncc(C(F)(F)F)c(Nc3ccc([C@@H]4C[C@@H](O)[C@@H](O)C4)c4c3C(=O)N(C)C4)n2)c(OC)c1)OCC [Example 243, Diethyl (4-{[4-({7-[-3,4-dihydroxycyclopentyl]-2-methyl-3-oxo-2,3-dihydro-1H-isoindol-4-yl}amino)-5-(trifluoromethyl)pyrimidin-2-yl]amino}-3-methoxybenzyl) phosphonate] | < 1000 nM | < 1000 nM | – | –
– | CNC(=O)c1ccccc1Nc1nc(Nc2ccc(CP(=O)(OCCOC)OCCOC)cc2)ncc1C(F)(F)F [Example 185, Bis(2-methoxyethyl) (4-{[4-{[2-(methylcarbamoyl)phenyl]amino}-5-(trifluoromethyl)pyrimidin-2-yl]amino}benzyl)phosphonate] | < 1000 nM | < 1000 nM | – | –
1000 to 10000 nM | CN(c1ncccc1CNc1nc(Nc2ccc(CP(=O)(OCC3CCC3)OCC3CCC3)cc2)ncc1C(F)(F)F)S(C)(=O)=O [Example 34, bis(cyclobutylmethyl) [4-({4-[({2-[methyl(methylsulfonyl)amino]pyridin-3-yl}methyl)amino]-5-(trifluoromethyl)pyrimidin-2-yl}amino)benzyl]phosphonate] | – | < 1000 nM | – | –
< 1000 nM | CN(c1ncccc1CNc1nc(Nc2cccc(P(C)(C)=O)c2)ncc1C(F)(F)F)S(C)(=O)=O [Example 15, N-[3-({[2-{[3-(Dimethylphosphoryl)phenyl]amino}-5-(trifluoromethyl)pyrimidin-4-yl]amino}methyl)pyridin-2-yl]-N-methylmethanesulfonamide] | – | < 1000 nM | < 1000 nM | < 1000 nM
– | CCOP(=O)(Cc1ccc(Nc2ncc(C(F)(F)F)c(Nc3cccc4c3C(=O)N(C)CC4)n2)cc1)OCC [Example 132, Diethyl [4-({4-[(2-methyl-1-oxo-1,2,3,4-tetrahydroisoquinolin-8-yl)amino]-5-(trifluoromethyl)pyrimidin-2-yl}amino)benzyl]phosphonate] | < 1000 nM | < 1000 nM | – | –
– | CCOP(=O)(Cc1ccc(Nc2ncc(C(F)(F)F)c(Nc3ccc(-c4cnn(C)c4)c4c3C(=O)N(C)C4)n2)c(OC)c1)OCC [Example 71, Diethyl (3-methoxy-4-{[4-{[2-methyl-7-(1-methyl-1H-pyrazol-4-yl)-3-oxo-2,3-dihydro-1H-isoindol-4-yl]amino}-5-(trifluoromethyl)pyrimidin-2-yl]amino}benzyl)phosphonate] | – | < 1000 nM | < 1000 nM | < 1000 nM
– | CCOP(=O)(Cc1ccc(Nc2ncc(C(F)(F)F)c(Nc3ccc(C#N)cc3C(=O)NC)n2)c(OC)c1)OCC [Example 151, Diethyl (4-{[4-{[4-cyano-2-(methylcarbamoyl)phenyl]amino}-5-(trifluoromethyl)pyrimidin-2-yl]amino}-3-methoxybenzyl)phosphonate] | < 1000 nM | < 1000 nM | – | –
– | CCOP(=O)(Cc1ccc(Nc2ncc(C(F)(F)F)c(Nc3ccc(-c4cnn(C[C@H](O)CO)c4)c4c3C(=O)N(C)C4)n2)cc1)OCC [Example 101, Diethyl [4-({4-[(7-{1-[(2S)-2,3-dihydroxypropyl]-1H-pyrazol-4-yl}-2-methyl-3-oxo-2,3-dihydro-1H-isoindol-4-yl)amino]-5-(trifluoromethyl)pyrimidin-2-yl}amino)benzyl]phosphonate] | < 1000 nM | < 1000 nM | – | –
– | CCOP(=O)(Cc1ccc(Nc2ncc(C(F)(F)F)c(Nc3ccc(Br)cc3C(=O)NC)n2)c(OC)c1)OCC [Example 107, Diethyl (4-{[4-{[4-bromo-2-(methylcarbamoyl)phenyl]amino}-5-(trifluoromethyl)pyrimidin-2-yl]amino}-3-methoxybenzyl)phosphonate] | < 1000 nM | < 1000 nM | – | –
– | CCOP(=O)(Cc1ccc(Nc2ncc(C(F)(F)F)c(Nc3ccccc3C(=O)N3CCCC3)n2)cc1)OCC [Example 176, Diethyl (4-{[4-{[2-(pyrrolidin-1-ylcarbonyl)phenyl]amino}-5-(trifluoromethyl)pyrimidin-2-yl]amino}benzyl)phosphonate] | 1000 to 10000 nM | < 1000 nM | – | –
< 1000 nM | CN(c1ncccc1CNc1nc(Nc2ccc(P3(=O)OCC(C)(C)CO3)cc2)ncc1C(F)(F)F)S(C)(=O)=O [Example 60, N-[3-({[2-{[4-(5,5-dimethyl-2-oxido-1,3,2-dioxaphosphinan-2-yl)phenyl]amino}-5-(trifluoromethyl)pyrimidin-4-yl]amino}methyl)pyridin-2-yl]-N-methylmethanesulfonamide] | – | < 1000 nM | < 1000 nM | < 1000 nM
1000 to 10000 nM | CC(C)OP(=O)(Cc1cccc(Nc2ncc(C(F)(F)F)c(NCc3cccnc3N(C)S(C)(=O)=O)n2)c1)OC(C)C [Example 35, Dipropan-2-yl [3-({4-[({2-[methyl(methylsulfonyl)amino]pyridin-3-yl}methyl)amino]-5-(trifluoromethyl)pyrimidin-2-yl}amino)benzyl]phosphonate] | – | < 1000 nM | – | –
– | CCOP(=O)(Cc1ccc(Nc2ncc(C(F)(F)F)c(Nc3ccc(C4CCNCC4)c4c3C(=O)N(C)C4)n2)cc1)OCC [Example 247, Diethyl (4-{[4-{[2-methyl-3-oxo-7-(piperidin-4-yl)-2,3-dihydro-1H-isoindol-4-yl]amino}-5-(trifluoromethyl)pyrimidin-2-yl]amino}benzyl)phosphonate] | < 1000 nM | < 1000 nM | – | –
– | CCOP(C)(=O)Cc1ccc(Nc2ncc(C(F)(F)F)c(Nc3ccc(C#CC(C)O)c4c3C(=O)N(C)C4)n2)cc1 (centres unmarked) [Example 76, Ethyl (4-{[4-{[7-(3-hydroxybut-1-yn-1-yl)-2-methyl-3-oxo-2,3-dihydro-1H-isoindol-4-yl]amino}-5-(trifluoromethyl)pyrimidin-2-yl]amino}benzyl)methylphosphinate] | – | < 1000 nM | < 1000 nM | 1000 to 10000 nM
– | CCOP(=O)(Cc1ccc(Nc2ncc(C(F)(F)F)c(Nc3ccc([C@H]4CC[C@@H](O)CC4)cc3C(=O)NC)n2)c(OC)c1)OCC [Example 140, Diethyl (4-{[4-{[4-(cis-4-hydroxycyclohexyl)-2-(methylcarbamoyl)phenyl]amino}-5-(trifluoromethyl)pyrimidin-2-yl]amino}-3-methoxybenzyl)phosphonate] | < 1000 nM | < 1000 nM | – | –
– | CCOP(=O)(Cc1ccc(Nc2ncc(C(F)(F)F)c(Nc3ccc(-c4cnn(CCO)c4)c4c3C(=O)N(C)C4)n2)c(OC)c1)OCC [Example 69, Diethyl (4-{[4-({7-[1-(2-hydroxyethyl)-1H-pyrazol-4-yl]-2-methyl-3-oxo-2,3-dihydro-1H-isoindol-4-yl}amino)-5-(trifluoromethyl)pyrimidin-2-yl]amino}-3-methoxybenzyl)phosphonate] | – | < 1000 nM | < 1000 nM | < 1000 nM

Structure (SMILES) | IC50 (FAK [1]; [4]) | IC50 (FAK [1]; [3]) | IC50 (FAK [2]) | IC50 (FAK [1]; [5]) | IC50 (FAK [1]; [6])
COP(=O)(OC)c1ccc(Nc2ncc(C(F)(F)F)c(NCc3cccnc3N(C)S(C)(=O)=O)n2)cc1 [Example 36, Dimethyl [4-({4-[({2-[methyl(methylsulfonyl)amino]pyridin-3-yl}methyl)amino]-5-(trifluoromethyl)pyrimidin-2-yl}amino)phenyl]phosphonate] | < 1000 nM | – | < 1000 nM | – | –
